Measurements taken from patent publication US8969555B2, “Bicyclic pyrimidine compounds” (Eli Lilly and Company, priority 2013, dated 2015).

Assays:
[1] = molecular target: T1, recombinant human autotaxin (Homo sapiens, UniProt Q13822); assay: Inhibition of Autotaxin as Measured by Choline Release; format: biochemical; details: LPC 16:0 30 μM, 37° C. 1 hour, arithmetic mean
T1 construct: full length human autotaxin with a C-terminal His tag transfected into 293E cells; His tag (C); made in house; host or cells: 293E cells

endogenous autotaxin = molecular target: T2, endogenous autotaxin (Homo sapiens, UniProt Q13822); assay: Reduction of LPA in the Presence of Human Plasma; format: biochemical; details: 90% pooled human plasma, 3 hours at 37° C., total LPA by mass spec; arithmetic mean
T2 construct: The increased endogenous LPC levels are cleaved by endogenous autotaxin; tissue Lampire Biologicals; host or cells: pooled human plasma (healthy female donors, sodium heparin)

IC50 [1]: 5.7 nM
IC50 (endogenous autotaxin): 10 nM
Compound: O=C(COCCc1cnn[nH]1)N1CCc2nc(NC3Cc4ccccc4C3)ncc2C1 [Example 1 and 1a, 1-[2-(2,3-dihydro-1H-inden-2-ylamino)-7,8-dihydropyrido[4,3-d]pyrimidin-6(5H)-yl]-2-[2-(1H-1,2,3-triazol-4-yl)ethoxy]ethanone]
